From patent US8022091B2, “Triazole derivative” (Taisho Pharmaceutical Co., Ltd., priority 2006, dated 2011) come the findings set out here.

One may read the inhibition as the relative decrease from the control value, in per cent.

T1 sequence (P21453 whole entry): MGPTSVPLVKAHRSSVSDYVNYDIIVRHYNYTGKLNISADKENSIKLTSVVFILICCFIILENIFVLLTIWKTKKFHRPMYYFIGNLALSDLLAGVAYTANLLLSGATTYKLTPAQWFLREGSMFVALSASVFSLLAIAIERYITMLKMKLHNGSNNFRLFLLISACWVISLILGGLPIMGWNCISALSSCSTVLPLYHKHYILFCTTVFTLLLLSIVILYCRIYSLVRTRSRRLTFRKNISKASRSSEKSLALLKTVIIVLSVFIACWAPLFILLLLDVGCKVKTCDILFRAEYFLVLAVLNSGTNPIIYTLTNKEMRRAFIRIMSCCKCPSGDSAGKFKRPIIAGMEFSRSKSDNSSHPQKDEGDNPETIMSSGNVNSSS

One assay has as its target T1, human Edg-1 (S1P1) (Homo sapiens, UniProt P21453).
T1 construct: expressed in transfected cells; host or cells: HEK-293
In words: S1P1 binding assay: inhibition of [33P]-S1P binding to membrane fraction of HEK-293 cells transferred with the human Edg-1 (S1P1) gene. The note with it: [33P]-S1P 0.1 nM, human Edg-1 (S1P1) HEK-293 membrane fraction, 1 h at 30° C.; read-out: IC50 (concentration at which binding in the absence of the test compound was inhibited by 50%). In short, it runs like this:
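With 0.1 nM [33P]-S1P and compound (10^−5M single point, or a concentration range for IC50) in 0.1% DMSO, membrane fractions from human Edg-1-expressing HEK-293 cells were treated for one hour at 30° C in 20 mM Tris-HCl pH 7.4 with NaF, deoxypyridoxine and BSA. Bound label was measured after filtration, with untransfected-cell background subtracted.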
For the molecule `CCn1c(Oc2cccc(N3CCC(=O)CC3)c2)nnc1[C@@H](C)NS(=O)(=O)c1ccc(Cl)c(Cl)c1` [Compound 88, 3,4-Dichloro-N-((R)-1-[4-ethyl-5-[3-(4-oxo-piperidin-1-yl)-phenoxy]-4H-[1,2,4]triazol-3-yl]-ethyl)-benzenesulfonamide], the IC50 was found to be 5.4 nM.

The same assay, now with this note: test compound 10 μM; inhibition of [33P]-S1P binding, membrane fraction.
In the case of `CCn1c(Oc2cccc(N3CCN(C)CC3)c2)nnc1[C@@H](C)NS(=O)(=O)c1ccc2oc(=O)ccc2c1` [Compound 679], the inhibition at 10 µM was 104%. Consider `CCn1c(Oc2cccc(N3CCN(C)CC3)c2)nnc1[C@@H](C)NS(=O)(=O)c1sc(C)nc1C` [Compound 631], for which the inhibition at 10 µM is 95.2%. Turning to `CCn1c(Oc2cccc(N3CCN(C)CC3)c2)nnc1[C@@H](C)NS(=O)(=O)c1cc(C(F)(F)F)ccc1Br` [Compound 611], the inhibition at 10 µM stood at 63.9%.

As for `CCn1c(Oc2cccc(N3CCN(C)CC3)c2)nnc1[C@@H](C)NS(=O)(=O)c1ccc(F)c(F)c1F` [Compound 577], the inhibition at 10 µM was 92.4%. On to `CCCCOc1ccc(S(=O)(=O)N[C@H](C)c2nnc(Oc3cccc(N4CCN(C)CC4)c3)n2CC)cc1` [Compound 502], for which the inhibition at 10 µM was determined as 75.5%.

For the molecule `CCn1c(Oc2cccc(N3CCN(C)CC3)c2)nnc1[C@@H](C)NS(=O)(=O)c1ccc(Br)cc1Br` [Compound 600], the inhibition at 10 µM was 100%. Still for that read-out and setting: next, `CCn1c(Oc2cccc(N3CCN(C)CC3)c2)nnc1[C@@H](C)NS(=O)(=O)c1ccc(OC)cc1` [Compound 518]: 111%; `CCn1c(Oc2cccc(N3CCN(C)CC3)c2)nnc1[C@@H](C)NS(=O)(=O)c1cc(C)oc1C(F)(F)F` [Compound 629]: 101%; `CCn1c(Oc2ccc3cc[nH]c3c2)nnc1[C@@H](C)NS(=O)(=O)c1ccc(C(F)(F)F)cc1Br` [Compound 442]: 70.1%. Still for that read-out and setting: for `CCn1c(Oc2cccc(N3CCN(C)CC3)c2)nnc1[C@@H](C)NS(=O)(=O)c1ccc(Cl)c2nonc12` [Compound 507] the value was 84.8%; for `CCn1c(Oc2cccc(N3CCN(C)CC3)c2)nnc1[C@@H](C)NS(=O)(=O)c1ccccc1Br` [Compound 501], 61.7%; for `CCn1c(Oc2cccc(N3CCN(C)CC3)c2)nnc1[C@@H](C)NS(=O)(=O)c1cc(Br)ccc1Br` [Compound 597], 97.3%. Take `CCn1c(Oc2ccc3cc[nH]c3c2)nnc1[C@@H](C)NS(=O)(=O)c1ccc(Br)c(F)c1` [Compound 447]: the inhibition at 10 µM was 95.5%. Same read-out and setting: next, `CCn1c(Oc2ccc3cc[nH]c3c2)nnc1[C@@H](C)NS(=O)(=O)c1ccc(Br)c(C(F)(F)F)c1` [Compound 488]: 62.5%; `CCn1c(Oc2ccc3cc[nH]c3c2)nnc1[C@@H](C)NS(=O)(=O)c1cccc(F)c1` [Compound 423]: 87.8%. Same read-out and setting: next, `CCn1c(Oc2ccc3cc[nH]c3c2)nnc1[C@@H](C)NS(=O)(=O)c1ccc(Br)cc1Br` [Compound 431]: 80.5%; `CCn1c(Oc2cccc(N3CCN(C)CC3)c2)nnc1[C@@H](C)NS(=O)(=O)c1ccc(OC(F)(F)F)cc1` [Compound 532]: 99.2%.

`CCn1c(Oc2cccc(N3CCN(C)CC3)c2)nnc1[C@@H](C)NS(=O)(=O)c1cc(Cl)ccc1OC` [Compound 594]: the inhibition at 10 µM came to 84%. The same measure, in the same setting: for `CCn1c(Oc2cccc(N3CCN(C)CC3)c2)nnc1[C@@H](C)NS(=O)(=O)c1ccc(OC(F)F)cc1` [Compound 603] the value was 107%. Turning to `CCn1c(Oc2cccc(N3CCN(C)CC3)c2)nnc1[C@@H](C)NS(=O)(=O)c1ccc(Br)cc1C` [Compound 575], the inhibition at 10 µM is 104%. The same measure, in the same setting: next, `CCn1c(Oc2cccc(N3CCN(C)CC3)c2)nnc1[C@@H](C)NS(=O)(=O)c1ccc(C)cc1` [Compound 528]: 106%; `CCn1c(Oc2ccc3cc[nH]c3c2)nnc1[C@@H](C)NS(=O)(=O)c1ccc2nsnc2c1` [Compound 464]: 87.9%.

For the molecule `CCn1c(Oc2cccc(N3CCN(C)CC3)c2)nnc1[C@@H](C)NS(=O)(=O)c1c(C)noc1C` [Compound 541], the inhibition at 10 µM was 65.5%. As to `CCn1c(Oc2cccc(N3CCN(C)CC3)c2)nnc1[C@@H](C)NS(=O)(=O)c1cc(Br)ccc1OC` [Compound 559], the inhibition at 10 µM was 79.3%. Same read-out and setting: next, `CCn1c(Oc2cccc(N3CCN(C)CC3)c2)nnc1[C@@H](C)NS(=O)(=O)c1ccc(-c2ccnc(SC)n2)s1` [Compound 640]: 59.5%; `CCn1c(Oc2ccc3cc[nH]c3c2)nnc1[C@@H](C)NS(=O)(=O)c1cc(Cl)c(F)cc1F` [Compound 417]: 90.8%. Take `CCn1c(Oc2cccc(N3CCN(C)CC3)c2)nnc1[C@@H](C)NS(=O)(=O)c1ccc(C(F)(F)F)cc1Cl` [Compound 644]: the inhibition at 10 µM was 93%. Still for that read-out and setting: for `CCn1c(Oc2cccc(N3CCN(C)CC3)c2)nnc1[C@@H](C)NS(=O)(=O)c1ccc(C(C)(C)C)cc1` [Compound 500] the value was 90.2%.

The assay is the same for the next values; noted with them: test compound at 10 μM; inhibition of [33P]-S1P binding to the membrane fraction of HEK-293 cells expressing human Edg-1 (S1P1).
As to `CCn1c(Oc2ccc(F)cc2)nnc1[C@@H](C)NS(=O)(=O)c1ccc(F)c2ccccc12` [Compound 307], the inhibition at 10 µM came out at 94.4%. Still for that read-out and setting: for `CCn1c(Oc2ccc3cc[nH]c3c2)nnc1[C@@H](C)NS(=O)(=O)c1ccc(F)c(Cl)c1` [Compound 385] the value was 98%; for `CCn1c(Oc2ccc3cc[nH]c3c2)nnc1[C@@H](C)NS(=O)(=O)c1ccc(S(C)(=O)=O)cc1` [Compound 350], 75%; for `CCn1c(Oc2ccc(F)cc2)nnc1[C@@H](C)NS(=O)(=O)c1c(F)c(F)c(F)c(F)c1F` [Compound 181], 50.4%.

Regarding `CCn1c(Oc2ccc3cc[nH]c3c2)nnc1[C@@H](C)NS(=O)(=O)c1cc(C)c(Cl)cc1C` [Compound 340], the inhibition at 10 µM is 100%. Consider `CCn1c(Oc2ccc(F)cc2)nnc1[C@@H](C)NS(=O)(=O)c1ccc(Br)c(C(F)(F)F)c1` [Compound 318], for which the inhibition at 10 µM was 78.9%.

Turning to `CCn1c(Oc2ccc3cc[nH]c3c2)nnc1[C@@H](C)NS(=O)(=O)CCc1cccc2ccccc12` [Compound 353], the inhibition at 10 µM is 92.3%. The same measure, in the same setting: for `CCn1c(Oc2ccc(F)cc2)nnc1[C@@H](C)NS(=O)(=O)c1ccccc1C` [Compound 189] the value was 99.7%; for `CCn1c(Oc2ccc(F)cc2)nnc1[C@@H](C)NS(=O)(=O)c1ccc(OC(F)(F)F)cc1` [Compound 190], 87.9%. On the same count and under the same terms, next, `CCn1c(Oc2ccc3cc[nH]c3c2)nnc1[C@@H](C)NS(=O)(=O)c1cccc(OC)c1` [Compound 386]: 84%; `CCn1c(Oc2cccc(N3CCC(=O)CC3)c2)nnc1[C@@H](C)NS(=O)(=O)c1ccc(Cl)c(Cl)c1` [Compound 88, 3,4-Dichloro-N-((R)-1-[4-ethyl-5-[3-(4-oxo-piperidin-1-yl)-phenoxy]-4H-[1,2,4]triazol-3-yl]-ethyl)-benzenesulfonamide]: 99.5%; `CCn1c(Oc2ccc(F)cc2)nnc1[C@@H](C)NS(=O)(=O)c1ccc2c(c1)CN(C(=O)C(F)(F)F)CC2` [Compound 194]: 80.7%.

Take `Cc1c(C)c(C)c(S(=O)(=O)N[C@H](C)c2nnc(Oc3ccc(F)cc3)n2C)c(C)c1C` [Compound 220]: the inhibition at 10 µM came out at 93.7%.

Regarding `CCn1c(Oc2ccc(F)cc2)nnc1[C@@H](C)NS(=O)(=O)c1ccc(F)cc1C` [Compound 273], the inhibition at 10 µM came out at 71.6%. Still for that read-out and setting: next, `CCn1c(Oc2ccc(F)cc2)nnc1[C@@H](C)NS(=O)(=O)c1ccc(Cl)cc1F` [Compound 267]: 89.6%.

As to `CCn1c(Oc2ccc(F)cc2)nnc1[C@@H](C)NS(=O)(=O)c1c(F)cc(F)cc1Br` [Compound 265], the inhibition at 10 µM stood at 59.1%.
